# PubChem BioAssay AID1963828 (Molecular Pharmacology Branch, DTP, NCI, 2024)
# “And” between values parts separate entries of the source, which are not always exact repeats. Equal entries are not always repeated.
# Tested on: 991263-137-R1-J2-PDC complex spheroid viability
# Test: Anticancer human tumor 991263-137-R1-J2-PDC patient-derived colon adenocarcinoma cell line growth inhibition [POLQ]
# Conditions: for viability, T/C: stronger effect = lower value
# Experimental: Multicellular complex tumor spheroid response to Polymerase (POL) inhibitors (novobiocin, ART-558, RP6685) in combination with a variety of drugs and investigational agents in selected tumor cell lines
# The POL inhibitors (novobiocin, ART-558, and RP6685) were evaluated both individually and in combination with standard of care and investigational anticancer small molecules within a complex spheroid model of solid tumors. . Complex spheroids include a stromal component modeled by human endothelial cells (HUVEC) and fibroblasts modeled by human mesenchymal stem cells (MSCs). The concentration ranges selected for each drug and investigational agent were based upon clinically achievable concentrations if the clinical Cmax of the agent was known.
# Compounds. The drugs and investigational agents: novobiocin (NSC847541), ART-558 (NSC835418), RP-6685 (NSC848927), peposertib (NSC802822), ceralasertib (NSC780249), elimusertib (NSC800525), camonsertib (NSC841442), AZD-1390 (NSC803789), olaparib (NSC753686), talazoparib (NSC767125), rucaparib (NSC756644), sotorasib (NSC818433), MRTX-1133 (NSC836407), SN-38 (NSC673596), topotecan (NSC609699), epotoside (NSC141540), doxorubicin (NSC123127), gemcitabine (NSC613327), 5-fluorouracil (NSC19893), paclitaxel (NSC125973), vemurafenib (NSC761431), MSA-2 (NSC828583), SN-011 (NSC837082), adavosertib (NSC754352), prexasertib (NSC758257), carboplatin (NSC241240) and oxaliplatin (NSC266046), were obtained from the National Cancer Institute (NCI) Developmental Therapeutics Program Chemical Repository (21). The FDA-approved anticancer drug set is available from the Developmental Therapeutics Program at https://dtp.cancer.gov/organization/dscb/obtaining/. […] The stock solutions were prepared in dimethyl sulfoxide (DMSO, Sigma-Aldrich, St. Louis, MO, cat. D2650), except for the platinum compounds which were prepared in saline (Quality Biological, Gaithersburg, MD, cat. 114-055-101), at 800-fold the tested concentration and stored at -70 degrees C prior to their use. All drugs and investigational agents were tested over a range starting from a high concentration at or near the clinical Cmax and decreasing in half-log increments. If the clinical Cmax for an agent had not been determined, the highest concentration tested was 10 microM, except for SN-38, which was tested at a high concentration of 1 microM.
# Cell Culture. All cells were maintained in an incubator at 37 degrees C and 5% CO2 with 95% humidity. The PDC lines were cultured according to standard operating procedures established by the NCI PDMR (https://pdmr.cancer.gov). Table 3 of the manuscript, lists the cell lines along with the number of the three cell types plated to form the mct-spheroids and media for tumor cell growth. After thawing, all PDC lines, except 997537-175-T-J1-PDC and 415267-285-R-J2-PDC, were cultured in Matrigel-coated flasks prepared with a working solution of 1X Ham's F-12 nutrient mix, without supplementation (Thermo Fisher Scientific, cat. 11765054), 100 U/mL penicillin-streptomycin (Thermo Fisher Scientific, cat. 15140122), and 2.5% Matrigel (Corning Inc., Corning, NY, cat. 354248) for the first three passages. The two PDC lines 997537-175-T-J1-PDC and 415267-285-R-J2-PDC were cultured on uncoated flasks. The 857933-349-R-J2-PDC line was cultured in 6C/Colon 1B media containing advanced DMEM/F-12 (Thermo Fisher Scientific, cat. 12634028), 10 mM HEPES (Thermo Fisher Scientific, cat. 15630080), 1X GlutaMAX supplement (Thermo Fisher Scientific, cat. 35050061), 0.1 mg/mL primocin (InvivoGen, San Diego, CA, cat. ant-pm-2), 10% defined fetal bovine serum, heat inactivated (HyClone Laboratories Inc., Logan, UT, cat. SH30070.03HI), 50% L-WRN conditioned media (ATCC, cat. CRL-3276), 1.25 mM N-Acetyl-L-cysteine (Sigma-Aldrich, cat. A9165), 10 mM nicotinamide (Sigma-Aldrich, cat. N0636), 1X B-27 supplement (Thermo Fisher Scientific, cat. 17504044), 1X N-2 supplement (Thermo Fisher Scientific, cat. […]
# 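Further: spheroids exposed to compounds for 7 days before readout.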
# 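Wherever viability, T/C is given: 100% = DMSO vehicle control viability.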
compound,measurement,setting,value
O=c1[nH]cc(F)c(=O)[nH]1 + COC1C(OC(N)=O)C(O)C(Oc2ccc3c(O)c(NC(=O)c4ccc(O)c(CC=C(C)C)c4)c(=O)oc3c2C)OC1(C)C,IC50,"curve of first compound, second compound 0.0316 µM",> 10000 nM
same,IC50,"curve of first compound, second compound 0.1 µM",> 10000 nM
same,IC50,"curve of first compound, second compound 0.316 µM",> 10000 nM
same,IC50,"curve of first compound, second compound 1 µM",> 10000 nM
same,IC50,"curve of first compound, second compound 3.16 µM",> 10000 nM
same,IC50,"curve of first compound, second compound 10 µM",> 10000 nM
same,"viability, T/C","second compound 0.0316 µM, first compound 0.0316 µM",94%
same,"viability, T/C","second compound 0.0316 µM, first compound 0.1 µM",101%
same,"viability, T/C","second compound 0.0316 µM, first compound 0.316 µM",91%
same,"viability, T/C","second compound 0.0316 µM, first compound 1 µM",94%
same,"viability, T/C","second compound 0.0316 µM, first compound 3.16 µM",87%
same,"viability, T/C","second compound 0.0316 µM, first compound 10 µM",79.3%
same,"viability, T/C","second compound 0.1 µM, first compound 0.0316 µM",103%
same,"viability, T/C","second compound 0.1 µM, first compound 0.1 µM",104%
same,"viability, T/C","second compound 0.1 µM, first compound 0.316 µM",108%
same,"viability, T/C","second compound 0.1 µM, first compound 1 µM",82.1%
same,"viability, T/C","second compound 0.1 µM, first compound 3.16 µM",95.1%
same,"viability, T/C","second compound 0.1 µM, first compound 10 µM",62.5%
same,"viability, T/C","second compound 0.316 µM, first compound 0.0316 µM",87.4%
same,"viability, T/C","second compound 0.316 µM, first compound 0.1 µM",118%
same,"viability, T/C","second compound 0.316 µM, first compound 0.316 µM",76.6%
same,"viability, T/C","second compound 0.316 µM, first compound 1 µM",92.6%
same,"viability, T/C","second compound 0.316 µM, first compound 3.16 µM",88.1%
same,"viability, T/C","second compound 0.316 µM, first compound 10 µM",84.4%
same,"viability, T/C","second compound 1 µM, first compound 0.0316 µM",99%
same,"viability, T/C","second compound 1 µM, first compound 0.1 µM",97.8%
same,"viability, T/C","second compound 1 µM, first compound 0.316 µM",101%
same,"viability, T/C","second compound 1 µM, first compound 1 µM",82.6%
same,"viability, T/C","second compound 1 µM, first compound 3.16 µM",77.3%
same,"viability, T/C","second compound 1 µM, first compound 10 µM",69.4%
same,"viability, T/C","second compound 3.16 µM, first compound 0.0316 µM",65%
same,"viability, T/C","second compound 3.16 µM, first compound 0.1 µM",86.3%
same,"viability, T/C","second compound 3.16 µM, first compound 0.316 µM",97.9%
same,"viability, T/C","second compound 3.16 µM, first compound 1 µM",92.3%
same,"viability, T/C","second compound 3.16 µM, first compound 3.16 µM",82.3%
same,"viability, T/C","second compound 3.16 µM, first compound 10 µM",74.9%
same,"viability, T/C","second compound 10 µM, first compound 0.0316 µM",90.6%
same,"viability, T/C","second compound 10 µM, first compound 0.1 µM",107%
same,"viability, T/C","second compound 10 µM, first compound 0.316 µM",87.3%
same,"viability, T/C","second compound 10 µM, first compound 1 µM",83.7%
same,"viability, T/C","second compound 10 µM, first compound 3.16 µM",90.3%
same,"viability, T/C","second compound 10 µM, first compound 10 µM",78.3%
CCCS(=O)(=O)Nc1ccc(F)c(C(=O)c2c[nH]c3ncc(-c4ccc(Cl)cc4)cc23)c1F,"viability, T/C",compound 0.0316 µM,110% and 93.5% and 111%
same,"viability, T/C",compound 0.1 µM,99.2% and 90.3% and 101%
same,"viability, T/C",compound 0.316 µM,108% and 94.4% and 86%
same,"viability, T/C",compound 3.16 µM,114% and 104% and 107%
same,"viability, T/C",compound 10 µM,97.2% and 94.1% and 109%
same,IC50,curve of compound,> 10000 nM
Cn1ncnc1[C@H]1c2n[nH]c(=O)c3cc(F)cc(c23)N[C@@H]1c1ccc(F)cc1,"viability, T/C",compound 0.000316 µM,102% and 97.3% and 87.3%
same,"viability, T/C",compound 0.001 µM,93.6% and 88.1% and 88.5%
same,"viability, T/C",compound 0.00316 µM,102% and 104% and 109%
same,"viability, T/C",compound 0.01 µM,109% and 105% and 119%
same,"viability, T/C",compound 0.0316 µM,89.6% and 101% and 84.5%
same,"viability, T/C",compound 0.1 µM,106% and 112% and 105%
same,IC50,curve of compound,> 100 nM
C=CCn1c(=O)c2cnc(Nc3ccc(N4CCN(C)CC4)cc3)nc2n1-c1cccc(C(C)(C)O)n1,"viability, T/C",compound 0.00316 µM,103% and 105% and 106%
same,"viability, T/C",compound 0.01 µM,88.5% and 105% and 93.9%
same,"viability, T/C",compound 0.0316 µM,87% and 106% and 98.4%
same,"viability, T/C",compound 0.1 µM,107% and 98.7% and 95.2%
same,"viability, T/C",compound 1 µM,86.5% and 94.9% and 95%
same,IC50,curve of compound,> 1000 nM
CCc1c2c(nc3ccc(O)cc13)-c1cc3c(c(=O)n1C2)COC(=O)[C@]3(O)CC,"viability, T/C",compound 0.00316 µM,88.8% and 83.4% and 108%
same,"viability, T/C",compound 0.01 µM,80% and 74.9% and 74%
same,"viability, T/C",compound 0.0316 µM,63% and 64.4% and 51.9%
same,"viability, T/C",compound 0.1 µM,49.8% and 45.2% and 54.4%
same,"viability, T/C",compound 0.316 µM,37.3% and 37.2% and 36.9%
same,"viability, T/C",compound 1 µM,25.2% and 26.9% and 20.9%
same,IC50,curve of compound,99 nM and 83.3 nM and 93.9 nM
O=c1[nH]cc(F)c(=O)[nH]1,"viability, T/C",compound 0.0316 µM,106% and 114% and 96.5%
same,"viability, T/C",compound 0.1 µM,90.3% and 99.3% and 92.5%
same,"viability, T/C",compound 0.316 µM,76.8% and 93.5% and 94.8%
same,"viability, T/C",compound 1 µM,94% and 95.8% and 91%
same,"viability, T/C",compound 10 µM,91.7% and 85.1% and 80.9%
same,IC50,curve of compound,> 10000 nM
CNCc1ccc(-c2[nH]c3cc(F)cc4c3c2CCNC4=O)cc1,"viability, T/C",compound 0.0316 µM,98% and 102% and 119%
same,"viability, T/C",compound 0.1 µM,109% and 91.5% and 97.6%
same,"viability, T/C",compound 0.316 µM,97% and 102% and 112%
same,"viability, T/C",compound 1 µM,110% and 101% and 96%
same,"viability, T/C",compound 10 µM,111% and 110% and 104%
same,IC50,curve of compound,> 10000 nM
C#Cc1c(F)ccc2cc(O)cc(-c3ncc4c(N5CC6CCC(C5)N6)nc(OCC56CCCN5CC(F)C6)nc4c3F)c12 (configuration not stated),"viability, T/C",compound 0.0316 µM,111% and 87.6% and 112%
same,"viability, T/C",compound 0.1 µM,107% and 91.8% and 88.9%
same,"viability, T/C",compound 0.316 µM,104% (2×) and 103%
same,"viability, T/C",compound 1 µM,108% and 105% and 109%
same,"viability, T/C",compound 3.16 µM,96.9% and 116% (2×)
same,"viability, T/C",compound 10 µM,104% and 99.7% and 82.3%
same,IC50,curve of compound,> 10000 nM
CC1COCCN1c1cc(-c2ccnn2C)c2ccnc(-c3ccn[nH]3)c2n1 (configuration not stated),"viability, T/C",compound 0.0316 µM,112% and 99.9% and 100%
same,"viability, T/C",compound 0.1 µM,86.5% and 89.2% and 93.4%
same,"viability, T/C",compound 0.316 µM,81.6% and 77.2% and 83%
same,"viability, T/C",compound 1 µM,52.1% and 41.8% and 54.8%
same,"viability, T/C",compound 3.16 µM,35.4% and 24% and 43.9%
same,"viability, T/C",compound 10 µM,28.9% and 25.4% and 31.9%
same,IC50,curve of compound,1350 nM and 759 nM and 1690 nM
COc1cccc(OCCCN)c1-c1cc(Nc2cnc(C#N)cn2)n[nH]1,"viability, T/C",compound 0.00316 µM,89.6% and 99.7% and 88.6%
same,"viability, T/C",compound 0.01 µM,98.1% and 107% and 85.7%
same,"viability, T/C",compound 0.0316 µM,101% and 94.9% and 94.6%
same,"viability, T/C",compound 0.316 µM,43.2% and 53.1% and 61.2%
same,"viability, T/C",compound 1 µM,40.1% and 42.8% and 46.3%
same,IC50,curve of compound,90.9 nM and 464 nM and 750 nM
Nc1ccc(C#CCN(C(=O)Cc2ncc(C(F)(F)F)cc2C(F)(F)F)c2ccc(F)cc2)nn1,"viability, T/C",compound 0.0316 µM,100% [middle of 13 runs]
same,"viability, T/C",compound 0.1 µM,101% [middle of 13 runs]
same,"viability, T/C",compound 0.316 µM,99.3% [middle of 13 runs]
same,"viability, T/C",compound 1 µM,102% [middle of 13 runs]
same,"viability, T/C",compound 3.16 µM,103% [middle of 13 runs]
same,"viability, T/C",compound 10 µM,101% [middle of 13 runs]
same,IC50,"compound alone, run of 01/19/2024",> 10000 nM
CCc1cc2c(N3CCc4c(cc(Cn5ccnc5)cc4-c4cn(C)nc4C(F)(F)F)C3=O)cc(C)nc2c(OC)n1,"viability, T/C",compound 0.0316 µM,107% and 96% and 92.8%
same,"viability, T/C",compound 0.1 µM,101% and 98.5% and 96.4%
same,"viability, T/C",compound 3.16 µM,97.9% and 96.1% and 96.5%
same,"viability, T/C",compound 10 µM,93.5% and 82.6% and 105%
same,IC50,curve of compound,> 10000 nM
